pIC50: −log10 of the molar value.
The compounds below were run against T1, DGKA (Homo sapiens, UniProt P23743) (assay: DGKA Inhibition ADP-Glo Assay). Conditions: 40 μM ATP.
T1 construct: purchased SignalChem D21-10BG
Format: biochemical
Protocol: The DGKA inhibition reactions were performed using ADP-Glo assay. The reactions were carried out in 50 mM HEPES, 100 mM NaCl, 10 mM MgCl2, 1 mM CaCl2, 0.005% TritonX-100 and 1 mM DTT as working solution (pH=7.5). 30 nL DMSO solution of each test compound (Top concentration […] with 10 point, 4-fold dilution series for each compound) were transferred to 384 well plate by Echo and 5 μL DGKA (SignalChem, D21-10BG) enzyme working solution at 2× final reaction concentration was added to each well. After incubated at 25° C. for 15 minutes, 5 μL substrate working solution contain 40 μM ATP (Promega, V915B) and 200 µM DLG (SignalChem, D430-59) were added to initiate reaction. After enzymatic reaction at 25° C. for 60 min, ADP Glo assay reagents (Promega, V9102) were added and luminescence was recorded using an EnVision following the instruction of manual. […] The IC50 value was calculated via a regression analysis of the inhibition rate.

T1 sequence (P23743 whole entry): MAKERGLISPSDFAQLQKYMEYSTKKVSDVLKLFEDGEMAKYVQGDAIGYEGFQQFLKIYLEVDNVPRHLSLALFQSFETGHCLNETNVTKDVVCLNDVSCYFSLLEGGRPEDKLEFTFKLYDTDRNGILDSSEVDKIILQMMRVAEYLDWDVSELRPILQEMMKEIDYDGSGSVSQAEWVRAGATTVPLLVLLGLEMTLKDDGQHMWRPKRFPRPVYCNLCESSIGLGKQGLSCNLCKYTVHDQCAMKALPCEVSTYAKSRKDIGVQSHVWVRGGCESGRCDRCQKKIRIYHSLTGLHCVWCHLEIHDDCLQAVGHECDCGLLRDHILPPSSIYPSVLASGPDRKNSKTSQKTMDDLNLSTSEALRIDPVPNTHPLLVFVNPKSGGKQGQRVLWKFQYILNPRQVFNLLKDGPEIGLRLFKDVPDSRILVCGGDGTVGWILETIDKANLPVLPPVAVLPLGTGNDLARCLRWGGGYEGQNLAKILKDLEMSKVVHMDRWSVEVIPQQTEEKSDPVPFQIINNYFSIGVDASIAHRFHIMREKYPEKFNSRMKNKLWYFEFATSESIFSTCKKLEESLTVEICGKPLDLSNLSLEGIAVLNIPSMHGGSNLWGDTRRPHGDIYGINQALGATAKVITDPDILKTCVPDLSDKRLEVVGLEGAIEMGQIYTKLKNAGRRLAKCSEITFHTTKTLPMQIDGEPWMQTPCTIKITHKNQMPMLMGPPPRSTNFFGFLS

Cn1c(=O)nc(N2CCOCc3c(C4CC4)cccc32)c2cc(Cl)c(OCCO)cc21 [Example 37, 6-chloro-4-(6-cyclopropyl-2,3-dihydrobenzo[e][1,4]oxazepin-1(5H)-yl)-7-(2-hydroxyethoxy)-1-methylquinazolin-2(1H)-one] and Cc1cccc2c1COCCN2c1nc(=O)n(C)c2cc(OCCO)c(Cl)cc12 [Example 38, 6-chloro-7-(2-hydroxyethoxy)-1-methyl-4-(6-methyl-2,3-dihydrobenzo[e][1,4]oxazepin-1(5H)-yl)quinazolin-2(11H)-one] fall in the same range of pIC50: 8.00 to 9.00 for the first, 8.00 to 9.00 for the second.

Cn1c(=O)nc(N2CCOCc3c(C#CC4(C(F)(F)F)CC4)cccc32)c2cc(C#N)c(O[C@@H]3CCOC3)cc21 [Example 24, (R)-1-methyl-2-oxo-7-((tetrahydrofuran-3-yl)oxy)-4-(6-((1-(trifluoromethyl)cyclopropyl)ethynyl)-2,3-dihydrobenzo[e][1,4]oxazepin-1(5H)-yl)-1,2-dihydroquinazoline-6-carbonitrile] and Cn1c(=O)nc(N2CCOCc3c(C#CC4(C(F)(F)F)CC4)cccc32)c2cc(C#N)c(O[C@H]3CCOC3)cc21 [Example 23, (S)-1-methyl-2-oxo-7-((tetrahydrofuran-3-yl)oxy)-4-(6-((1-(trifluoromethyl)cyclopropyl)ethynyl)-2,3-dihydrobenzo[e][1,4]oxazepin-1(5H)-yl)-1,2-dihydroquinazoline-6-carbonitrile] cannot be ordered by pIC50: > 9.00 for the first, > 9.00 for the second.

Cn1c(=O)cc(N2CCOCc3c(C#CC4(C(F)(F)F)CC4)cccc32)c2nc(C#N)ccc21 [Example 2, 5-methyl-6-oxo-8-(6-((1-(trifluoromethyl)cyclopropyl)ethynyl)-2,3-dihydrobenzo[e][1,4]oxazepin-1(5H)-yl)-5,6-dihydro-1,5-naphthyridine-2-carbonitrile] and Cn1c(=O)cc(N2CCOCc3c(C#CC4(C(F)(F)F)CC4)cccc32)c2nc(Cl)ccc21 [Example 1, 6-chloro-1-methyl-4-(6-((1-(trifluoromethyl)cyclopropyl)ethynyl)-2,3-dihydrobenzo[e][1,4]oxazepin-1(5H)-yl)-1,5-naphthyridin-2(1H)-one] cannot be ordered by pIC50: > 9.00 for the first, > 9.00 for the second.

Cn1c(=O)nc(N2CCOCc3c(C#CC4(C(F)(F)F)CC4)cncc32)c2cc(Cl)c(OCCO)cc21 [Example 31, 6-chloro-7-(2-hydroxyethoxy)-1-methyl-4-(6-((1-(trifluoromethyl)cyclopropyl)ethynyl)-2,3-dihydropyrido[3,4-e][1,4]oxazepin-1(5H)-yl)quinazolin-2(1H)-one] and Cn1c(=O)nc(N2CCOCc3c(C#CC4(C(F)(F)F)CC4)ccnc32)c2cc(Cl)c(OCCO)cc21 [Example 30, 6-chloro-7-(2-hydroxyethoxy)-1-methyl-4-(6-((1-(trifluoromethyl)cyclopropyl)ethynyl)-2,3-dihydropyrido[2,3-e][1,4]oxazepin-1(5H)-yl)quinazolin-2(1H)-one] cannot be ordered by pIC50: > 9.00 for the first, > 9.00 for the second.

First: COc1cccc2c1COCCN2c1nc(=O)n(C)c2cc(OCCO)c(Cl)cc12 [Example 42, 6-chloro-7-(2-hydroxyethoxy)-4-(6-methoxy-2,3-dihydrobenzo[e][1,4]oxazepin-1(5H)-yl)-1-methylquinazolin-2(1H)-one]
Second: C#Cc1cccc2c1COCCN2c1nc(=O)n(C)c2cc(OCCO)c(Cl)cc12 [Example 39, 6-chloro-4-(6-ethynyl-2,3-dihydrobenzo[e][1,4]oxazepin-1(5H)-yl)-7-(2-hydroxyethoxy)-1-methylquinazolin-2(1H)-one]
The pIC50 of the first is lower: 8.00 to 9.00 for the first, > 9.00 for the second. The second is the more potent here.

Cn1c(=O)nc(N2CCOCc3c(C#CC4(C(F)(F)F)CC4)cccc32)c2cc(C#N)ccc21 [Example 6, 1-methyl-2-oxo-4-(6-((1-(trifluoromethyl)cyclopropyl)ethynyl)-2,3-dihydrobenzo[e][1,4]oxazepin-1(5H)-yl)-1,2-dihydroquinazoline-6-carbonitrile] and Cn1c(=O)nc(N2CCOCc3c(C#CC4(C(F)(F)F)CC4)cccc32)c2nc(C#N)ccc21 [Example 8] cannot be ordered by pIC50: > 9.00 for the first, > 9.00 for the second.

Compared with CN1CCC(Oc2cc3c(cc2Cl)c(N2CCOCc4c(C#CC5(C(F)(F)F)CC5)cccc42)nc(=O)n3C)C1 (stereo not drawn) [Example 35, 6-chloro-1-methyl-7-((1-methylpyrrolidin-3-yl)oxy)-4-(6-((1-(trifluoromethyl)cyclopropyl)ethynyl)-2,3-dihydrobenzo[e][1,4]oxazepin-1(5H)-yl)quinazolin-2(1H)-one], Cn1c(=O)nc(N2CCOCc3c(C#CC4(C(F)(F)F)CC4)cccc32)c2cc(Cl)c(O[C@H]3CCOC3)cc21 [Example 21, (S)-6-chloro-1-methyl-7-((tetrahydrofuran-3-yl)oxy)-4-(6-((1-(trifluoromethyl)cyclopropyl)ethynyl)-2,3-dihydrobenzo[e][1,4]oxazepin-1(5H)-yl)quinazolin-2(1H)-one] is higher in pIC50: 8.00 to 9.00 for the first, > 9.00 for the second.

Cn1c(=O)nc(N2CCOCc3c(C#CC4(C(F)(F)F)CC4)cccc32)c2cc(Cl)c(NCCO)cc21 [Example 15, 6-chloro-7-((2-hydroxyethyl)amino)-1-methyl-4-(6-((1-(trifluoromethyl)cyclopropyl)ethynyl)-2,3-dihydrobenzo[e][1,4]oxazepin-1(5H)-yl)quinazolin-2(1H)-one] and Cn1c(=O)nc(N2CCOCc3c(C#CC4(C(F)(F)F)CC4)cccc32)c2cc(C#N)c(NCCO)cc21 [Example 16, 7-((2-hydroxyethyl)amino)-1-methyl-2-oxo-4-(6-((1-(trifluoromethyl)cyclopropyl)ethynyl)-2,3-dihydrobenzo[e][1,4]oxazepin-1(5H)-yl)-1,2-dihydroquinazoline-6-carbonitrile] cannot be ordered by pIC50: > 9.00 for the first, > 9.00 for the second.

First: Cn1c(=O)nc(N2CCOCc3c(C#CC4CC4)cccc32)c2cc(C#N)c(OCCO)cc21 [Example 47, 4-(6-(cyclopropylethynyl)-2,3-dihydrobenzo[e][1,4]oxazepin-1(5H)-yl)-7-(2-hydroxyethoxy)-1-methyl-2-oxo-1,2-dihydroquinazoline-6-carbonitrile]
Second: CCc1cccc2c1COCCN2c1nc(=O)n(C)c2cc(OCCO)c(C#N)cc12 [Example 45, 4-(6-ethyl-2,3-dihydrobenzo[e][1,4]oxazepin-1(5H)-yl)-7-(2-hydroxyethoxy)-1-methyl-2-oxo-1,2-dihydroquinazoline-6-carbonitrile]
The pIC50 of the first is higher: > 9.00 for the first, 8.00 to 9.00 for the second. The first is the more potent here.

CC#Cc1cccc2c1COCCN2c1nc(=O)n(C)c2cc(OCCO)c(Cl)cc12 [Example 40, 6-chloro-7-(2-hydroxyethoxy)-1-methyl-4-(6-(prop-1-yn-1-yl)-2,3-dihydrobenzo[e][1,4]oxazepin-1(5H)-yl)quinazolin-2(1H)-one] and Cn1c(=O)nc(N2CCOCc3c(C#CC4(C)CC4)cccc32)c2cc(Cl)c(OCCO)cc21 [Example 29, 6-chloro-7-(2-hydroxyethoxy)-1-methyl-4-(6-((1-methylcyclopropyl)ethynyl)-2,3-dihydrobenzo[e][1,4]oxazepin-1(5H)-yl)quinazolin-2(11H)-one] cannot be ordered by pIC50: > 9.00 for the first, > 9.00 for the second.

Cn1c(=O)nc(N2CCOCc3c(C#CC4(C(F)(F)F)CC4)cccc32)c2cc(C#N)c(OCCCO)cc21 [Example 28, 7-(3-hydroxypropoxy)-1-methyl-2-oxo-4-(6-((1-(trifluoromethyl)cyclopropyl)ethynyl)-2,3-dihydrobenzo[e][1,4]oxazepin-1(5H)-yl)-1,2-dihydroquinazoline-6-carbonitrile] and Cn1c(=O)nc(N2CCOCc3c(C#CC4(C(F)(F)F)CC4)cccc32)c2cc(Cl)c(OCCCO)cc21 [Example 27, 6-chloro-7-(3-hydroxypropoxy)-1-methyl-4-(6-((1-(trifluoromethyl)cyclopropyl)ethynyl)-2,3-dihydrobenzo[e][1,4]oxazepin-1(5H)-yl)quinazolin-2(1H)-one] cannot be ordered by pIC50: > 9.00 for the first, > 9.00 for the second.

Cn1c(=O)nc(N2CCOCc3c(C#CC4(C(F)(F)F)CC4)cccc32)c2cc(C#N)c(OC3CCOCC3)cc21 [Example 26, 1-methyl-2-oxo-7-((tetrahydro-2H-pyran-4-yl)oxy)-4-(6-((1-(trifluoromethyl)cyclopropyl)ethynyl)-2,3-dihydrobenzo[e][1,4]oxazepin-1(5H)-yl)-1,2-dihydroquinazoline-6-carbonitrile] and COCCOc1cc2c(cc1C#N)c(N1CCOCc3c(C#CC4(C(F)(F)F)CC4)cccc31)nc(=O)n2C [Example 18, 7-(2-methoxyethoxy)-1-methyl-2-oxo-4-(6-((1-(trifluoromethyl)cyclopropyl)ethynyl)-2,3-dihydrobenzo[e][1,4]oxazepin-1(5H)-yl)-1,2-dihydroquinazoline-6-carbonitrile] cannot be ordered by pIC50: > 9.00 for the first, > 9.00 for the second.

First: Cn1c(=O)nc(N2CCOCc3ccccc32)c2cc(Cl)c(OCCO)cc21 [Example 36, 6-chloro-4-(2,3-dihydrobenzo[e][1,4]oxazepin-1(5H)-yl)-7-(2-hydroxyethoxy)-1-methylquinazolin-2(1H)-one]
Second: Cn1c(=O)nc(N2CCOCc3c(N4CCCC4)cccc32)c2cc(C#N)c(OCCO)cc21 [Example 46, 7-(2-hydroxyethoxy)-1-methyl-2-oxo-4-(6-(pyrrolidin-1-yl)-2,3-dihydrobenzo[e][1,4]oxazepin-1(5H)-yl)-1,2-dihydroquinazoline-6-carbonitrile]
The pIC50 of the first is lower: 8.00 to 9.00 for the first, > 9.00 for the second. The second is the more potent here.

In the case of Cn1c(=O)nc(N2CCOCc3c(C#CC4(C(F)(F)F)CC4)cccc32)c2cc(Cl)c(OC3CCNC3)cc21 (stereo not drawn) [Example 34, 6-chloro-1-methyl-7-(pyrrolidin-3-yloxy)-4-(6-((1-(trifluoromethyl)cyclopropyl)ethynyl)-2,3-dihydrobenzo[e][1,4]oxazepin-1(5H)-yl)quinazolin-2(1H)-one], the pIC50 was 8.00 to 9.00.
